Laboratory results from patent US20050143450A1, “Alkyl PCDF as a treatment for prostate cancer” (priority 2002, published 2005).

Columns and labels:
[1] = test system: AR; experiment: AR protein levels in LNCaP cells by Western blot; format: cell-based, human; conditions: 6 h; for AR protein levels, compound alone: DHT 10 nM, E2 10 nM, TCDD 10 nM, 6-MCDF 2 μM, HPTE 10 μM
Procedure: Cells were harvested 6 h after treatment using 200 μL/22-mm well of ice cold lysis buffer (50 mM HEPES, pH 7.5, 500 mM NaCl, 10% (v/v) glycerol, 1% (v/v) Triton-X 100, 1.5 mM MgCl2, 1 mM EGTA) (McDougal et al., 2001). Lysates were centrifuged at 40,000 g, and supernatant was collected as extract. Whole cell extracts (50 μg/sample) were separated by electrophoresis on a tiered 7.5% (top)/12.5% (bottom) SDS-polyacrylamide gel and transferred to PVDF membrane (Bio-Rad, Richmond, Calif.). The membrane was blocked with 5% milk (m/v) in tris-buffered saline 0.05% Tween (TBST). Membranes were incubated with primary antibodies for AR (sc-7305), cyclin D1 (sc-718), or p27 (sc-528) (each from Santa Cruz Biotechnology, Santa Cruz, Calif.) at 1:1000 in 5% milk/TBST for 3 h. Membranes were washed twice in TBST. Horseradish peroxidase (HRP)-conjugated secondary antibodies were applied at 1:5000 in 5% milk/TBST for 1 h. After two TBST washes, PVDF-bounded antibodies were detected using a chemiluminescence kit (Western Lightning, PerkinElmer), ImageTek-H film (American X-Ray and Medical Supply, Rancho Cordova, Calif.) and an autoprocessor (Hope Macro-Med, Warminster, Pa.). Quantitation of the Western blot was performed using a Sharp JX-330 scanner (Sharp, Mahwah, N.J.) and Zero-D software (Scanalytics, Billerica, Mass.).

[2] = target: T1, AR (Homo sapiens, UniProt P10275, T878A); format: cell-based; conditions: LNCaP; for effect on DHT-induced luciferase activity: pARR3, cotreatment with DHT; for effect on E2-induced luciferase activity: pARR3, cotreatment with E2
T1 construct: AR protein levels in whole cell lysates were determined by Western blot analysis; endogenous in cells; host or cells: LNCaP
T1 sequence (P10275 1-920 T878A): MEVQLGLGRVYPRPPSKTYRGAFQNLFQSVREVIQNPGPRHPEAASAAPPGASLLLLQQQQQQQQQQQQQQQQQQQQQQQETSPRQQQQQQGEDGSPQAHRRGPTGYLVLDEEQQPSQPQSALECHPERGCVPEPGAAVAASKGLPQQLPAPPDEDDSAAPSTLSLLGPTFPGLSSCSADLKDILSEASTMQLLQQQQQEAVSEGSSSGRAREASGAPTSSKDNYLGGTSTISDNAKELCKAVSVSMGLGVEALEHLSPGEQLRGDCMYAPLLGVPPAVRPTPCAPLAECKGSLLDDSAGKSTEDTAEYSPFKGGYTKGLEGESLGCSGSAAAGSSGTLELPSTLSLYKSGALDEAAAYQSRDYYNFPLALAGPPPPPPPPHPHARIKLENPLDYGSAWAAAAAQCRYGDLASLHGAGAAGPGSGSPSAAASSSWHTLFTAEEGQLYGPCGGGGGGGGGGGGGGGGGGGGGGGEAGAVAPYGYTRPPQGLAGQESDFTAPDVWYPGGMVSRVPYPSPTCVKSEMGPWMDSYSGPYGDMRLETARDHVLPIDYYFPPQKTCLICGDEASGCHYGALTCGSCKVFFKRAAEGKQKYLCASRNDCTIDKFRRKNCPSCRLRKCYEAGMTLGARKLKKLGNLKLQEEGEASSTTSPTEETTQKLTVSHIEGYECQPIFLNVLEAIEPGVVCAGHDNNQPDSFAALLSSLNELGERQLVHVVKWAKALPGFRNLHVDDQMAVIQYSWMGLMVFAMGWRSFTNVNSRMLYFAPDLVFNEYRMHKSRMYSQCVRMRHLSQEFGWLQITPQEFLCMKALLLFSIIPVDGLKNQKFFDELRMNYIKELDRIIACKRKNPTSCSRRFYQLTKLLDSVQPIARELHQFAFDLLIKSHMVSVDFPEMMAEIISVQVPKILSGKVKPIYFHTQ
Procedure: (§1) After 24 h, cells were transfected using Lipofectamine and Plus reagents (Invitrogen) according to manufacturer's instructions. LNCaP and ZR-75 cells were transfected with 500 ng/well of either reporter plasmid, and 250 ng/well of pcDNA3.1-β-gal (Invitrogen) as the internal control. In addition, ZR-75 cells were transfected with 500 ng hAR. Twenty-four hours after treatment, cells were harvested by scraping with 200 μL/well of reporter lysis buffer. Lysates were centrifuged at 40,000 g and luciferase and β-galactosidase activity was assayed with 30 μL of the supernatant extract per sample using a Lumicount luminometer (PerkinElmer, Boston, Mass.). Luciferase activity was normalized to β-galactosidase activity for each transfection well.
Next, LNCaP cells were transfected with pARR3 construct that contained three tandem (3) copies of the probasin androgen response element. The transfected cells were treated with hormone or AhR agonist alone or in combination and luciferase activity was determined as described in the above examples.

[3] = target: T2, AhR (Homo sapiens, UniProt P35869); experiment: AhR activation, pDRE3 luciferase transient transfection in LNCaP cells; format: cell-based
T2 construct: LNCaP cells were transfected with pDRE3, treated with various compounds and luciferase activity was determined; endogenous in cells; host or cells: LNCaP
T2 sequence (P35869 11-848): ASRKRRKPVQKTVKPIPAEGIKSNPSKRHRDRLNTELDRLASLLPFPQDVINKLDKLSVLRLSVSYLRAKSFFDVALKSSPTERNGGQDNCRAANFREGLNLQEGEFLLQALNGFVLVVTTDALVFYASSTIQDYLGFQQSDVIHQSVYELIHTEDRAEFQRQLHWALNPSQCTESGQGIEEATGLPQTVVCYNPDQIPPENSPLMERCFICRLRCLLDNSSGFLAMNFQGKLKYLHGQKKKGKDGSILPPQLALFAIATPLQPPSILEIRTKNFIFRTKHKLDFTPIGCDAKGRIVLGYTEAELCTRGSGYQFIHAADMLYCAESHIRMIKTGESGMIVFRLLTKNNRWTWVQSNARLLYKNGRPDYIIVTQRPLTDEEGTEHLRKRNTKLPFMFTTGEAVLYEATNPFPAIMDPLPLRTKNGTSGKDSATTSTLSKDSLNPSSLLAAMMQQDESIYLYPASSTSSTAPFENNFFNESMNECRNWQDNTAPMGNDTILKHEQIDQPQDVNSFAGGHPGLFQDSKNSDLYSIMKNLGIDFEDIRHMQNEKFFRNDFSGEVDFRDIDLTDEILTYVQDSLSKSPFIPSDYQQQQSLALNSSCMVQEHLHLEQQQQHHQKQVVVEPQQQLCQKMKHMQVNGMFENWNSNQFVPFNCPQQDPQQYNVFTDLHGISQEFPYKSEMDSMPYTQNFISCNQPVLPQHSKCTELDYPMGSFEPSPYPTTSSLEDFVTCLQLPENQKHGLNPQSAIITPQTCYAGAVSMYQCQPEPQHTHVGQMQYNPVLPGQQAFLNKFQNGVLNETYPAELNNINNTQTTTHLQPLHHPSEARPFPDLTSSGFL
Procedure: as §1
LNCaP cells were transfected with pDRE3, treated with various compounds and luciferase activity was determined as described in the above Examples.

| SMILES | AR levels in combination with DHT compared to DHT alone [1] | AR protein levels, compound alone [1] | effect on DHT-induced luciferase activity [2] | effect on E2-induced luciferase activity [2] | luciferase activity induction ([3]; pDRE3, 2 μM) [fold] | AR levels in combination with E2 compared to E2 alone [1] | luciferase activity induction compared to solvent control (DMSO) ([3]; pDRE3, 10 nM) [fold] |
| --- | --- | --- | --- | --- | --- | --- | --- |
| Cc1cc(Cl)cc2c1oc1cc(Cl)cc(Cl)c12 [6-MCDF, 6-methyl-1,3,8-trichlorodibenzofuran] | significant decrease | did not significantly affect | did not decrease | not a significant decrease | > 7 | – | – |
| Clc1cc2c(cc1Cl)Oc1cc(Cl)c(Cl)cc1O2 [TCDD, 2,3,7,8-tetrachloro-p-dioxin] | significant decrease | did not significantly affect | did not decrease | not a significant decrease | – | decreased | > 9 |
